Data from ChEMBL document CHEMBL6121021, “Design and Synthesis of Topoisomerases-Histone Deacetylase Dual Targeted Quinoline-Bridged Hydroxamates as Anticancer Agents” (J Med Chem, 2025).

Key:
[1] = biological target: Polyamine deacetylase HDAC10 (Homo sapiens, UniProt Q969S8); assay: Inhibition of HDAC10 (unknown origin)
Histone deacetylase 8 = biological target: T1, Histone deacetylase 8 (Homo sapiens, UniProt Q9BY41); assay: Inhibition of HDAC8 (unknown origin)
T1 sequence (Q9BY41 whole entry): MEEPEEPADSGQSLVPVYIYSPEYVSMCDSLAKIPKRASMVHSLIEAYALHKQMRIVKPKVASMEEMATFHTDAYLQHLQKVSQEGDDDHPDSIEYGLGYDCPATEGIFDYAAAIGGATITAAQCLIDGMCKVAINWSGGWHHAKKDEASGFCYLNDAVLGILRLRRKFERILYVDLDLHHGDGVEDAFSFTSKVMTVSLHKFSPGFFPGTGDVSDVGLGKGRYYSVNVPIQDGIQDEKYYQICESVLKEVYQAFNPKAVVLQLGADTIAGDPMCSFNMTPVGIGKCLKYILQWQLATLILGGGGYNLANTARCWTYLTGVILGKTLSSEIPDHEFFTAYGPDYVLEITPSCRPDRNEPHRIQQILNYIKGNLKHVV

Histone deacetylase 3 = Histone deacetylase 3 (Homo sapiens, UniProt O15379); assay: Inhibition of HDAC3 (unknown origin)
Histone deacetylase 4 = Histone deacetylase 4 (Homo sapiens, UniProt P56524); assay: Inhibition of HDAC4 (unknown origin)
Histone deacetylase 1 = Histone deacetylase 1 (Homo sapiens, UniProt Q13547); assay: Inhibition of HDAC1 (unknown origin)
[2] = biological target: T2, Protein deacetylase HDAC6 (Homo sapiens, UniProt Q9UBN7); assay: Inhibition of HDAC6 (unknown origin)
T2 sequence (Q9UBN7 whole entry): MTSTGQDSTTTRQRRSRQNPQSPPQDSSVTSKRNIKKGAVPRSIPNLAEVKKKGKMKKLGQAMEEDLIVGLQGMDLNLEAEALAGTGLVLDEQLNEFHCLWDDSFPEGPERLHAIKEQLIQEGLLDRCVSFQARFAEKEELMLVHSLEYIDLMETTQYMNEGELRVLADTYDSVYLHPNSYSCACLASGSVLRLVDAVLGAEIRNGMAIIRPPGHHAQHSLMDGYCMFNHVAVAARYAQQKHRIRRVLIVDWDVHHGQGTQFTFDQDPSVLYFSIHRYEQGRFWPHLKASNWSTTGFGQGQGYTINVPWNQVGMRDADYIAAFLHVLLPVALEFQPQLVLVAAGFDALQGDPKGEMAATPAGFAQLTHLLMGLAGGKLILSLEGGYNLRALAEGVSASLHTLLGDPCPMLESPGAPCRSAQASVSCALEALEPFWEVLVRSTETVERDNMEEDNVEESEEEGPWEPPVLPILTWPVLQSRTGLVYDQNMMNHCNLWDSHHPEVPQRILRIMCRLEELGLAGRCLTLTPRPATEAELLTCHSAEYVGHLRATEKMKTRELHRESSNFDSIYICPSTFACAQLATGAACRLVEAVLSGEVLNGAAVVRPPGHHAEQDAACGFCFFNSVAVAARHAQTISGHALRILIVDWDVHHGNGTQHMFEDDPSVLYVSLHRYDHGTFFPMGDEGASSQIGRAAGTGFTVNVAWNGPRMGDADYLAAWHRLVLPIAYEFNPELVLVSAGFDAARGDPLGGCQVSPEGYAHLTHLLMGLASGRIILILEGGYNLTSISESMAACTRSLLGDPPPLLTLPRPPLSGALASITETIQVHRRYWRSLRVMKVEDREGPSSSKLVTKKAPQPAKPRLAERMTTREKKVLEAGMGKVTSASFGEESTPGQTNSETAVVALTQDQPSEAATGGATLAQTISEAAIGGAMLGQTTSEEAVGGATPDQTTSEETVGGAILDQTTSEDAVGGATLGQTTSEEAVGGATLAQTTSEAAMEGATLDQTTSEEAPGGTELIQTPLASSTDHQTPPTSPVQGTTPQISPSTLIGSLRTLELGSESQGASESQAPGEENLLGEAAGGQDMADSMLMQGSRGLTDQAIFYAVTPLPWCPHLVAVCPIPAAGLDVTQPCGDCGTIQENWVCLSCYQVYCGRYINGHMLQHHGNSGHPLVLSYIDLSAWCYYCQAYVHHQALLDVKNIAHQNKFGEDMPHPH

Histone deacetylase 11 = Histone deacetylase 11 (Homo sapiens, UniProt Q96DB2); assay: Inhibition of HDAC11 (unknown origin)
Histone deacetylase 2 = Histone deacetylase 2 (Homo sapiens, UniProt Q92769); assay: Inhibition of HDAC2 (unknown origin)
Chain of Histone deacetylase 2 (Q92769 whole entry): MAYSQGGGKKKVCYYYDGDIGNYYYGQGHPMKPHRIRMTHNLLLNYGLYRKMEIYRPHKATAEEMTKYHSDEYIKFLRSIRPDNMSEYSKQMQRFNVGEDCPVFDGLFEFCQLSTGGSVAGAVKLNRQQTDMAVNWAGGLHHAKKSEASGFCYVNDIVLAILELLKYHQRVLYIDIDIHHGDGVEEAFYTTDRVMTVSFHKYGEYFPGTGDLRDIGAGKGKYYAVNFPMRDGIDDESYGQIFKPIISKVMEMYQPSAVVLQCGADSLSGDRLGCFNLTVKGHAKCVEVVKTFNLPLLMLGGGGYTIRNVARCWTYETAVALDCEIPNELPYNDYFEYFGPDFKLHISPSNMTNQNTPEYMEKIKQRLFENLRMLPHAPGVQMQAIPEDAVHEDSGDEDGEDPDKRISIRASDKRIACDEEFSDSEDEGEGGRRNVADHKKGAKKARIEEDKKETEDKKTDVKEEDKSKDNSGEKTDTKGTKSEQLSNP

Chain of Histone deacetylase 1 (Q13547 whole entry): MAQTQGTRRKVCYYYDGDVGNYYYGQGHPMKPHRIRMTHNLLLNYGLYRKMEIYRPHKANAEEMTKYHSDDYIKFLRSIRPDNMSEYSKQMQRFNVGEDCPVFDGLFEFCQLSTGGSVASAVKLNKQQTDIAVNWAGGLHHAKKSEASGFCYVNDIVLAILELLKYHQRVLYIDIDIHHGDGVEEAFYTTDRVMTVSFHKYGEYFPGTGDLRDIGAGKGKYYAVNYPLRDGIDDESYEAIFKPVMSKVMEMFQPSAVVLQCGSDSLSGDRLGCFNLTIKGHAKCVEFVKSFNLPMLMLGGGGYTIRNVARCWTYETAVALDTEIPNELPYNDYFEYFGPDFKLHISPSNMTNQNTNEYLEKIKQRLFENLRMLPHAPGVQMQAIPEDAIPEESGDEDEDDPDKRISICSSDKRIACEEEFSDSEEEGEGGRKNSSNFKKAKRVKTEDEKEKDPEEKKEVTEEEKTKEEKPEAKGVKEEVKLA
Chain of Histone deacetylase 3 (O15379 whole entry): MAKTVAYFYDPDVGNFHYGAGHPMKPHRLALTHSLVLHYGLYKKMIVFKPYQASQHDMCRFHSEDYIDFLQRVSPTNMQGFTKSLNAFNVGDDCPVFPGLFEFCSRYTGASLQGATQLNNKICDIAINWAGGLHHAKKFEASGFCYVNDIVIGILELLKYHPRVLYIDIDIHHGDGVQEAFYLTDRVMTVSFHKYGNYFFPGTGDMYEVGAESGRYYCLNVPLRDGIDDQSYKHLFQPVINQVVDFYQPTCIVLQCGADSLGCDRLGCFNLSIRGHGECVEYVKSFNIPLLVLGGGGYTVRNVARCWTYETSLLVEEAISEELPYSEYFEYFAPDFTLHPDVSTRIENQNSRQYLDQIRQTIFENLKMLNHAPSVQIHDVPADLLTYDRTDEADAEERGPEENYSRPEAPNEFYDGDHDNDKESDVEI
Chain of Histone deacetylase 11 (Q96DB2 whole entry): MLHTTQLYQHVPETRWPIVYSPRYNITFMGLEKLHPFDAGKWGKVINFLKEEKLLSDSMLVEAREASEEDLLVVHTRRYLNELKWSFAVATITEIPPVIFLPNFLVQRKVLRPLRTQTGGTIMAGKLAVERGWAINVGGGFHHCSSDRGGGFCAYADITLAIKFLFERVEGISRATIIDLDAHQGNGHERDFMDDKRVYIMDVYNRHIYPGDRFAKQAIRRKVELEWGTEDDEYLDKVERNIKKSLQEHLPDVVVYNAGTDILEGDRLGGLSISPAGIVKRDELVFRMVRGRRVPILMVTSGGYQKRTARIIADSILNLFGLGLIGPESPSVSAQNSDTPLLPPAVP
Chain of Polyamine deacetylase HDAC10 (Q969S8 whole entry): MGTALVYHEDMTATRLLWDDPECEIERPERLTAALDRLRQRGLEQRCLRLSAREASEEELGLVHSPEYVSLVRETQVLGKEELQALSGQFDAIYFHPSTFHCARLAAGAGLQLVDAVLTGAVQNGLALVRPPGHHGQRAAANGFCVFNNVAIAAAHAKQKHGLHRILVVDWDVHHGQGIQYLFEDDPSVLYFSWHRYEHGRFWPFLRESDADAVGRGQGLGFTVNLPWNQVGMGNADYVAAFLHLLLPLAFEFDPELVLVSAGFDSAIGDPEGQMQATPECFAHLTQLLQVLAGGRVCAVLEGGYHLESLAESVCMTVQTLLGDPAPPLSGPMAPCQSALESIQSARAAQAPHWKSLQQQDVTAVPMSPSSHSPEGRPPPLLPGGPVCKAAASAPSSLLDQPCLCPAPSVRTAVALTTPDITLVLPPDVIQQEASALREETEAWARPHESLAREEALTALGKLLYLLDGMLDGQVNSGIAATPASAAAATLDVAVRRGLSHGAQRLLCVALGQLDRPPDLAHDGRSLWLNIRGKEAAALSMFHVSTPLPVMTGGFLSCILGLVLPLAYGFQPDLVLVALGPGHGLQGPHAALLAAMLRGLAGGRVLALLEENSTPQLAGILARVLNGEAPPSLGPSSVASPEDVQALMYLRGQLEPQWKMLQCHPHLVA
Chain of Histone deacetylase 4 (P56524 whole entry): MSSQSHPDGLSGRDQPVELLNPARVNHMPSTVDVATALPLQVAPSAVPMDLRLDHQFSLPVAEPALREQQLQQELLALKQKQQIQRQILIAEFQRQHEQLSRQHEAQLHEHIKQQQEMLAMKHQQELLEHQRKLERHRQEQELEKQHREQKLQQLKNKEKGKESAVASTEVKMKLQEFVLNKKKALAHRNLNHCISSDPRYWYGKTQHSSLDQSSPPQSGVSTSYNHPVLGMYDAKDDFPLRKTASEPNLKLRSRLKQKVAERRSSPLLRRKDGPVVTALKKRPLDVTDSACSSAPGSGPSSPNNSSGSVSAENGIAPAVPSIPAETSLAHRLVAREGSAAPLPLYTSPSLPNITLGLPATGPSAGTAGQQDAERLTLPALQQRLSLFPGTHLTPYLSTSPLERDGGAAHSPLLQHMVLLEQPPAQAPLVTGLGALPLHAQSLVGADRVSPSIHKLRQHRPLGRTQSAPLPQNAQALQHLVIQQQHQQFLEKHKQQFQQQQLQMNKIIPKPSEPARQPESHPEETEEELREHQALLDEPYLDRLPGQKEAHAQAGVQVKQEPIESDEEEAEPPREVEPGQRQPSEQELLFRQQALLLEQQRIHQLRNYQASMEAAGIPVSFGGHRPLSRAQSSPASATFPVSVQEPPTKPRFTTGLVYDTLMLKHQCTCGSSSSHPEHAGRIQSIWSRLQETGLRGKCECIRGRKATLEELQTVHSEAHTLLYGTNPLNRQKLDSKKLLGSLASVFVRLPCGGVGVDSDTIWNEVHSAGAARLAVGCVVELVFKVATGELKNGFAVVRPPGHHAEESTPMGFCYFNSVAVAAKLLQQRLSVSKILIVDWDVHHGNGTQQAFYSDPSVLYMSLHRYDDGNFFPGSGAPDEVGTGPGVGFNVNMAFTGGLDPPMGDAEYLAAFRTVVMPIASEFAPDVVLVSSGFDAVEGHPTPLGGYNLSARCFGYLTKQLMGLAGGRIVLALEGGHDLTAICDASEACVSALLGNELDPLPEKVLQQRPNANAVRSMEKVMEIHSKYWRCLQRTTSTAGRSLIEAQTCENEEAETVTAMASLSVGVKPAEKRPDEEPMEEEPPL

- IC50 [1]: 5.5 nM
- IC50 (Histone deacetylase 8): > 100 nM
- IC50 (Histone deacetylase 3): 27 nM
- IC50 (Histone deacetylase 4): > 100 nM
- IC50 (Histone deacetylase 1): 0.16 nM
- IC50 [2]: > 100 nM
- IC50 (Histone deacetylase 11): > 100 nM
- IC50 (Histone deacetylase 2): 10 nM
Structure (SMILES): CN1c2ccccc2C(=O)N2[C@H](C(=O)Nc3ccc(C(=O)Nc4ccccc4N)cc3)Cc3c([nH]c4ccccc34)[C@@H]12
